These compounds were tested against T1, SARM1 (Homo sapiens, UniProt Q6SZW1) (assay: ARM-SAM-TIR SARM1 IC50 assay (NADase activity, NAD+ cleavage)). Conditions: ARM-SAM-TIR lysate 5 μg/mL from NRK1-HEK293T cells; 2 h pre-incubation with compound, 5 μM NAD+, 2 hr room temperature; NAD+ and ADPR by RapidFire mass spectrometry; read-out: SARM1 IC50.
T1 construct: AviTag […]; made in house; host or cells: NRK1-HEK293T cells, transiently transfected; the clarified sonicated lysate was used without purification
T1 sequence (Q6SZW1 with tags, fused parts or gaps): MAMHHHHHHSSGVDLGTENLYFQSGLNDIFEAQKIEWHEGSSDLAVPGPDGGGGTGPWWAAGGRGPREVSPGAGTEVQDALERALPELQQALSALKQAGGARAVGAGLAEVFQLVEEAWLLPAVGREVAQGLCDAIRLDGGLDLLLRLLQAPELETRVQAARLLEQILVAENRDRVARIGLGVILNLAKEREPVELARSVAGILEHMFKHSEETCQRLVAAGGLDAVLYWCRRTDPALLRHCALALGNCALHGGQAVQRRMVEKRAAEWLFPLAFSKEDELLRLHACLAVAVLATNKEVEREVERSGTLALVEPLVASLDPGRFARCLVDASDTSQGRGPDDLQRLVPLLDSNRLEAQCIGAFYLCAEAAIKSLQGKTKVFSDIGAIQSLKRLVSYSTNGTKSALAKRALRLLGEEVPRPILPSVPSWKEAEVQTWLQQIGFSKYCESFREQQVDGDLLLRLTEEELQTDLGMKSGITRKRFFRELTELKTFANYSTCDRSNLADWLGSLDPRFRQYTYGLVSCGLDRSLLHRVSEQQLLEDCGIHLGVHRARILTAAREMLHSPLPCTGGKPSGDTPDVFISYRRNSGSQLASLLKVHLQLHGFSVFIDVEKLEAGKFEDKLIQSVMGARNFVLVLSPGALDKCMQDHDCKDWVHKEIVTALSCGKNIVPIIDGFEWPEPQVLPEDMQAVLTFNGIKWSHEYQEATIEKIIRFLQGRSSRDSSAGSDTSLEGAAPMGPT
Format: biochemical
From the text: This Example describes an assay of ARM-SAM-TTR NADase activity and use of this assay to measure the efficacy of compounds of Formula I or Formula II to block SARM1 mediated NAD+ cleavage. This assay is optimized in such a way as to characterize the efficacy of the compounds in Formula I or Formula II to inhibit SARM1 activity and to calculate an IC50 value for each compound. This assay makes use of full length SARI, which encompasses the ARM, SAM and TTR domains.
Preparation of ARM-SAM-TIR Lysate (STL)
NRK1-HEK293T cells were seeded onto 150 cm^2 plates at 20×10^6 cells per plate. The next day, the cells were transfected with 15 μg ARM-SAM-TIR expression plasmid, SEQ ID NO: 1.
The cultures were supplemented with 1 mM NR at time of transfection to minimize toxicity from ARM-SAM-TIR overexpression. Forty-eight hours after transfection, cells were harvested, pelleted by centrifugation at 1,000 rpm (Sorvall ST 16R centrifuge, Thermo Fisher), and washed once with cold PBS (0.01 M phosphate buffered saline NaCl 0.138 M; KCl 0.0027 M; pH 7.4). The cells were resuspended in PBS with protease inhibitors (cOmplete™ protease inhibitor cocktail, Roche product #11873580001) and cell lysates were prepared by sonication (Branson Sonifer 450, output=3, 20 episodes of stroke). The lysates were centrifuged (12,000×g for 10 min at 4° C.) to remove cell debris and the supernatants (containing ARM-SAM-TIR protein) were stored at −80° C. for later use in the in vitro ARM-SAM-TIR NADase assay (see below). Protein concentration was determined by the Bicinchoninic (BCA) method and used to normalize lysate concentrations.
ARM-SAM-TIR IC50 Assay of Formula I or Formula II Compounds.
The enzymatic assay was performed in a 384-well polypropylene plate in Dulbecco's PBS buffer in a final assay volume of 20 μL. ARM-SAM-TIR lysate with a final concentration of 5 μg/mL was pre-incubated with the respective compound at 1% DMSO final assay concentration over 2 h at room temperature. The reaction was initiated by addition of 5 μM final assay concentration of NAD+ as substrate. After a 2 hr room temperature incubation, the reaction was terminated with 40 μL of stop solution of 7.5% trichloroactetic acid in acetonitrile. The NAD+ and ADPR concentrations were analyzed by a RapidFire High Throughput Mass Spectrometry System (Agilent Technologies, Santa Clara, CA) using an API4000 triple quadrupole mass spectrometer (AB Sciex Framingham, MA).

| Compound | IC50 [µM] |
| --- | --- |
| N#Cc1cc(N2CCC(NCc3ccccc3)CC2)nc2ccc(Br)cc12 [Example 113] | < 5 |
| CC(=O)NC1(C)CCN(c2cc(C#N)c3cc(Br)ccc3n2)CC1 [Example 114] | < 5 |
| CS(=O)(=O)NC1CCN(c2cc(C#N)c3cc(Br)ccc3n2)CC1 [Example 117] | < 5 |
| CC(=O)N[C@@]1(C)CCCN(c2cc(C#N)c3cc(Br)ccc3n2)C1 [Example 119] | < 5 |
| C[C@]1(NS(C)(=O)=O)CCCN(c2cc(C#N)c3cc(Br)ccc3n2)C1 [Example 120] | < 5 |
| CC(=O)N[C@]1(C)CCCN(c2cc(C#N)c3cc(Br)ccc3n2)C1 [Example 121] | < 5 |
| C[C@@]1(NS(C)(=O)=O)CCCN(c2cc(C#N)c3cc(Br)ccc3n2)C1 [Example 122] | < 5 |
| COCCN(C)C(=O)C1CCN(c2cc(C#N)c3cc(Br)ccc3n2)CC1 [Example 123] | < 5 |
| N#Cc1cc(N2CCC[C@H](NC(=O)c3ccncn3)C2)nc2ccc(Br)cc12 [Example 126] | < 5 |
| N#Cc1cc(N2CCC[C@H](NC(=O)c3cn[nH]c3)C2)nc2ccc(Br)cc12 [Example 127] | < 5 |
| Cn1cnc(C(=O)N[C@H]2CCCN(c3cc(C#N)c4cc(Br)ccc4n3)C2)c1 [Example 130] | < 5 |
| N#Cc1cc(N2CCC(NS(N)(=O)=O)CC2)nc2ccc(Br)cc12 [Example 132] | < 5 |
| N#Cc1cc(N2CCC[C@H](NC(=O)c3cnccn3)C2)nc2ccc(Br)cc12 [Example 133] | < 5 |
| N#Cc1cc(N2CCC[C@H](NC(=O)c3c[nH]cn3)C2)nc2ccc(Br)cc12 [Example 136] | < 5 |
| N#Cc1cc(N2CCC[C@H](NC(=O)N3CCS(=O)(=O)CC3)C2)nc2ccc(Br)cc12 [Example 138] | < 5 |
| N#Cc1cc(N2CCC[C@H](NC(=O)c3cncnc3)C2)nc2ccc(Br)cc12 [Example 139] | < 5 |
| N#Cc1cc(N2CC[C@H](C(=O)N3CCCC3)C2)nc2ccc(Br)cc12 [Example 142] | < 5 |
| N#Cc1cc(N2CC[C@@H](C(=O)N3CCCC3)C2)nc2ccc(Br)cc12 [Example 143] | < 5 |
| C[C@@H]1CCC[C@H](C)N1c1cc(C#N)c2ccccc2n1 [Example 144] | < 5 |
| N#Cc1cc(N2CCCC23CCOC3)nc2ccc(Br)cc12 (centres unmarked) [Example 145] | < 5 |
| N#Cc1cc(N2CCC[C@@H]2C(=O)N2CCCC2)nc2ccc(Br)cc12 [Example 146] | < 5 |
| CC(O)c1ccc2nc(N3[C@H](C)CCC[C@@H]3C)cc(C#N)c2c1 (some centres unmarked) [Example 147] | < 5 |
| C[C@@H]1CCC[C@H](C)N1c1cc(C#N)c2cc(CO)ccc2n1 [Example 149] | < 5 |
| N#Cc1cc(N2CCCC(c3ncccn3)C2)nc2ccc(Br)cc12 (centres unmarked) [Example 152] | < 5 |

More lines, now with the values ahead:

| IC50 [µM] | Compound |
| --- | --- |
| < 5 | CN(CC1CC1)C(=O)[C@H]1CCCN(c2cc(C#N)c3cc(Br)ccc3n2)C1 [Example 115] |
| < 5 | CN(Cc1ccccc1)C(=O)[C@H]1CCCN(c2cc(C#N)c3cc(Br)ccc3n2)C1 [Example 116] |
| < 5 | CC1(NS(C)(=O)=O)CCN(c2cc(C#N)c3cc(Br)ccc3n2)CC1 [Example 118] |
| < 5 | CN(CC1CC1)C(=O)C1CCN(c2cc(C#N)c3cc(Br)ccc3n2)CC1 [Example 124] |
| < 5 | CN(Cc1ccccc1)C(=O)C1CCN(c2cc(C#N)c3cc(Br)ccc3n2)CC1 [Example 125] |
| < 5 | Cn1cc(C(=O)N[C@H]2CCCN(c3cc(C#N)c4cc(Br)ccc4n3)C2)cn1 [Example 128] |
| < 5 | Cc1n[nH]cc1C(=O)N[C@H]1CCCN(c2cc(C#N)c3cc(Br)ccc3n2)C1 [Example 129] |
| < 5 | N#Cc1cc(N2CCOCC2C2CC2)nc2ccc(Cl)cc12 (centres unmarked) [Example 131] |
| < 5 | Cc1nccnc1C(=O)N[C@H]1CCCN(c2cc(C#N)c3cc(Br)ccc3n2)C1 [Example 134] |
| < 5 | Cc1cncnc1C(=O)N[C@H]1CCCN(c2cc(C#N)c3cc(Br)ccc3n2)C1 [Example 135] |
| < 5 | N#Cc1cc(N2CCC[C@H](NC(=O)N3CCOCC3)C2)nc2ccc(Br)cc12 [Example 137] |
| < 5 | C[C@@H]1CCC[C@H](C)N1c1cc(C#N)c2cc(C#N)ccc2n1 [Example 140] |
| < 5 | N#Cc1cc(N2CCC[C@@H](C(=O)NCc3cnccn3)C2)nc2ccc(Br)cc12 [Example 141] |
| < 5 | C[C@@H]1CCC[C@H](C)N1c1cc(C#N)c2cc(C(C)(C)O)ccc2n1 [Example 148] |
| < 5 | N#Cc1cc(N2CCCC(c3ccccn3)C2)nc2ccc(Br)cc12 (centres unmarked) [Example 150] |
| < 5 | Cn1ccnc1C1CCCN(c2cc(C#N)c3cc(Br)ccc3n2)C1 (centres unmarked) [Example 151] |
| < 5 | N#Cc1cc(N2CCCC(n3cccn3)C2)nc2ccc(Br)cc12 (centres unmarked) [Example 153] |
